According to ChEMBL document CHEMBL3621068, “Synthesis and biological evaluation of a new class of quinazolinoneazoles as potential antimicrobial agents and their interactions with calf thymus DNA and human serum albumin” (Medchemcomm, 2015):
≈ marks a conversion by molar mass, not a printed value.

Experiments:
Assay type in all cases: functional
Cyberlindnera jadinii = test: Antifungal activity against Candida utilis ATCC 9950 after 24 hrs by micro broth dilution assay; details: Williopsis jadinii, ATCC 9950, 24 h
Aspergillus flavus = test: Antifungal activity against Aspergillus flavus ATCC 204304 after 24 hrs by micro broth dilution assay; details: ATCC 204304, 24 h
Saccharomyces cerevisiae = test: Antifungal activity against Beer yeast ATCC 9763 after 24 hrs by micro broth dilution assay; details: ATCC 9763, 24 h
Candida albicans = test: Antifungal activity against Candida albicans ATCC 10231 after 24 hrs by micro broth dilution assay; details: ATCC 10231, 24 h
Candida = test: Antifungal activity against Candida mycoderma ATCC 9888 after 24 hrs by micro broth dilution assay; details: ATCC 9888, 24 h
Micrococcus luteus = test: Antibacterial activity against Micrococcus luteus ATCC 4698 after 24 hrs by micro broth dilution assay; details: ATCC 4698, 24 h
Staphylococcus aureus [1] = test: Antibacterial activity against methicillin-resistant Staphylococcus aureus N315 after 24 hrs by micro broth dilution assay; details: N315, 24 h
Staphylococcus aureus [2] = test: Antibacterial activity against Staphylococcus aureus ATCC 25923 after 24 hrs by micro broth dilution assay; details: ATCC 25923, 24 h
Bacillus spizizenii = test: Antibacterial activity against Bacillus subtilis ATCC 6633 after 24 hrs by micro broth dilution assay; details: ATCC 6633, 24 h
Pseudomonas aeruginosa = test: Antibacterial activity against Pseudomonas aeruginosa ATCC 27853 a after 24 hrs by micro broth dilution assay; details: ATCC 27853, 24 h
Escherichia coli = test: Antibacterial activity against Escherichia coli DH52 after 24 hrs by micro broth dilution assay; details: DH52, 24 h
Bacillus sp. = test: Antibacterial activity against Bacillus proteus ATCC 13315 after 24 hrs by micro broth dilution assay; details: Bacillus sp. (in: firmicutes), ATCC 13315, 24 h
[3] = Antibacterial activity against Eberthella typhosa ATCC 14028 after 24 hrs by micro broth dilution assay; details: ATCC 14028, 24 h

Compound | MIC (Cyberlindnera jadinii) [µM] | MIC (Aspergillus flavus) [µM] | MIC (Saccharomyces cerevisiae) [µM] | MIC (Candida albicans) [µM] | MIC (Candida) [µM] | MIC (Micrococcus luteus) [µM] | MIC (Staphylococcus aureus [1]) [µM] | MIC (Staphylococcus aureus [2]) [µM] | MIC (Bacillus spizizenii) [µM] | MIC (Pseudomonas aeruginosa) [µM] | MIC (Escherichia coli) [µM] | MIC (Bacillus sp.) [µM] | MIC [3] [µM]
O=c1c2ccc(F)cc2ncn1CCn1cncn1 | 990 (≈ 257 µg/mL) | 990 (≈ 257 µg/mL) | 490 (≈ 127 µg/mL) | 990 (≈ 257 µg/mL) | 490 (≈ 127 µg/mL) | 30 (≈ 7.78 µg/mL) | 490 (≈ 127 µg/mL) | 990 (≈ 257 µg/mL) | 490 (≈ 127 µg/mL) | 30 (≈ 7.78 µg/mL) | 250 (≈ 64.8 µg/mL) | 990 (≈ 257 µg/mL) | 990 (≈ 257 µg/mL)
OC(Cn1cncn1)(Cn1cncn1)c1ccc(F)cc1F [FLUCONAZOLE] | 30 (≈ 9.19 µg/mL) | 840 (≈ 257 µg/mL) | 50 (≈ 15.3 µg/mL) | < 10 | 10 (≈ 3.06 µg/mL) | > 1670 | > 1670 | > 1670 | > 1670 | > 1670 | > 1670 | > 1670 | > 1670
Cc1ncc([N+](=O)[O-])n1CCCCCCCCCCn1cnc2cc(Cl)ccc2c1=O | 20 (≈ 8.92 µg/mL) | 20 (≈ 8.92 µg/mL) | 40 (≈ 17.8 µg/mL) | 20 (≈ 8.92 µg/mL) | 40 (≈ 17.8 µg/mL) | 20 (≈ 8.92 µg/mL) | 40 (≈ 17.8 µg/mL) | 20 (≈ 8.92 µg/mL) | 20 (≈ 8.92 µg/mL) | > 1150 | 20 (≈ 8.92 µg/mL) | 20 (≈ 8.92 µg/mL) | 20 (≈ 8.92 µg/mL)
Cc1ncc([N+](=O)[O-])n1CCCCCn1cnc2cc(F)ccc2c1=O | 20 (≈ 7.19 µg/mL) | 20 (≈ 7.19 µg/mL) | 20 (≈ 7.19 µg/mL) | 40 (≈ 14.4 µg/mL) | 40 (≈ 14.4 µg/mL) | 20 (≈ 7.19 µg/mL) | 20 (≈ 7.19 µg/mL) | 40 (≈ 14.4 µg/mL) | 20 (≈ 7.19 µg/mL) | > 1420 | 40 (≈ 14.4 µg/mL) | 20 (≈ 7.19 µg/mL) | 20 (≈ 7.19 µg/mL)
O=c1c2ccc(F)cc2ncn1CCCCCCCCCCBr | 330 (≈ 126 µg/mL) | 1340 (≈ 514 µg/mL) | 670 (≈ 257 µg/mL) | 670 (≈ 257 µg/mL) | > 1340 | 670 (≈ 257 µg/mL) | 330 (≈ 126 µg/mL) | > 1340 | 1340 (≈ 514 µg/mL) | > 1340 | 1340 (≈ 514 µg/mL) | 330 (≈ 126 µg/mL) | > 1340
O=c1c2ccc(F)cc2ncn1CCn1ccnc1 | 990 (≈ 256 µg/mL) | 500 (≈ 129 µg/mL) | 500 (≈ 129 µg/mL) | 990 (≈ 256 µg/mL) | > 1980 | 500 (≈ 129 µg/mL) | 990 (≈ 256 µg/mL) | > 1980 | > 1980 | 990 (≈ 256 µg/mL) | 1980 (≈ 511 µg/mL) | 1980 (≈ 511 µg/mL) | > 1980
O=c1c2ccc(Cl)cc2ncn1CCn1cncn1 | 460 (≈ 127 µg/mL) | 930 (≈ 256 µg/mL) | 460 (≈ 127 µg/mL) | 930 (≈ 256 µg/mL) | 460 (≈ 127 µg/mL) | 30 (≈ 8.27 µg/mL) | 460 (≈ 127 µg/mL) | 930 (≈ 256 µg/mL) | 460 (≈ 127 µg/mL) | 30 (≈ 8.27 µg/mL) | 230 (≈ 63.4 µg/mL) | 930 (≈ 256 µg/mL) | 930 (≈ 256 µg/mL)
O=c1c2ccc(F)cc2ncn1CCCCn1cnc([N+](=O)[O-])c1 | 390 (≈ 129 µg/mL) | 770 (≈ 255 µg/mL) | 100 (≈ 33.1 µg/mL) | 100 (≈ 33.1 µg/mL) | 770 (≈ 255 µg/mL) | 50 (≈ 16.6 µg/mL) | 190 (≈ 62.9 µg/mL) | 390 (≈ 129 µg/mL) | 50 (≈ 16.6 µg/mL) | 770 (≈ 255 µg/mL) | 770 (≈ 255 µg/mL) | 390 (≈ 129 µg/mL) | 390 (≈ 129 µg/mL)
Cc1ncc([N+](=O)[O-])n1CCn1cnc2cc(Cl)ccc2c1=O | 50 (≈ 16.7 µg/mL) | 20 (≈ 6.67 µg/mL) | 50 (≈ 16.7 µg/mL) | 50 (≈ 16.7 µg/mL) | 50 (≈ 16.7 µg/mL) | 100 (≈ 33.4 µg/mL) | 50 (≈ 16.7 µg/mL) | 100 (≈ 33.4 µg/mL) | 50 (≈ 16.7 µg/mL) | > 1530 | 100 (≈ 33.4 µg/mL) | 50 (≈ 16.7 µg/mL) | 20 (≈ 6.67 µg/mL)
O=c1c2ccc(Cl)cc2ncn1CCBr | 890 (≈ 256 µg/mL) | > 1780 | 890 (≈ 256 µg/mL) | > 1780 | > 1780 | 450 (≈ 129 µg/mL) | 890 (≈ 256 µg/mL) | > 1780 | 1780 (≈ 512 µg/mL) | > 1780 | 1780 (≈ 512 µg/mL) | 890 (≈ 256 µg/mL) | > 1780
Cc1ncc([N+](=O)[O-])n1CCCCCCCCCCn1cnc2cc(F)ccc2c1=O | 20 (≈ 8.59 µg/mL) | 40 (≈ 17.2 µg/mL) | 20 (≈ 8.59 µg/mL) | 40 (≈ 17.2 µg/mL) | 20 (≈ 8.59 µg/mL) | 40 (≈ 17.2 µg/mL) | 20 (≈ 8.59 µg/mL) | 20 (≈ 8.59 µg/mL) | 20 (≈ 8.59 µg/mL) | > 1190 | 20 (≈ 8.59 µg/mL) | 20 (≈ 8.59 µg/mL) | 20 (≈ 8.59 µg/mL)
O=c1c2ccc(Cl)cc2ncn1CCCCCCn1cnc([N+](=O)[O-])c1 | 340 (≈ 128 µg/mL) | 170 (≈ 63.9 µg/mL) | 90 (≈ 33.8 µg/mL) | 40 (≈ 15 µg/mL) | 40 (≈ 15 µg/mL) | 40 (≈ 15 µg/mL) | 170 (≈ 63.9 µg/mL) | 340 (≈ 128 µg/mL) | 40 (≈ 15 µg/mL) | 340 (≈ 128 µg/mL) | 170 (≈ 63.9 µg/mL) | 90 (≈ 33.8 µg/mL) | 340 (≈ 128 µg/mL)
